Data set [1] is described as follows: Four-week oral dose toxicology study in rats (GLP). Set-up: species or system SD rats. The conditions noted are these: Sprague-Dawley, rat, in vivo, read-out: no-observed-adverse-effect level (NOAEL). How it is done: STP0404 was administered orally to 10 or 15 SD rats/sex/group at dose levels of 100, 300 and 600 mg/kg/day for 4 weeks to evaluate its potential toxicity. The reversibility of any effects was also assessed following a 2-week untreated recovery period. Control animals (15 animals/sex) received the vehicle, 0.5 w/v% methylcellulose solution, in a similar manner for comparison. In addition, plasma STP0404 concentrations were determined using TK satellite animals (3 animals/sex/group) to evaluate systemic exposure of the animals to the test article. (Study no. YL18402). STP0404 was administered orally as a capsule to 4 or 6 dogs/sex/group at dose levels of 30, 60 and 90 mg/kg/day for 4 weeks to evaluate its potential toxicity. Control animals (6 animals/sex) received empty gelatin capsules in a similar manner for comparison. The reversibility of any effects was also assessed following a 2-week untreated recovery period (2 animals/sex/group for the control and 90 mg/kg/day groups). In addition, plasma STP0404 concentrations were determined using all tested animals (including control group) to evaluate systemic exposure of the animals to the test article (Study no. YL18403). The test was performed according to the Standard Operating Procedures (SOP) the Good Laboratory Practice (GLP) system of the INA Research.

Data set [2] concerns CEMx174 cells. Nature of the data set: Tissue culture cytotoxicity measurement in CEMx174 cells. The data set is classed as cell-based. How it is done:
Fig 1 ALLINI structures and STP0404 activities. A. Quinoline-based BI224436, B. Benzothiazole-based GS-9822, C. Pyridine-based KF116, D. Pyrrolopyridine-based STP0404. The conserved chemical moiety containing tert-butoxy and carboxylic acid groups are marked by “]”. E. In vitro anti-HIV-1 efficacy of STP0404 against HIV-1NL4-3 and 89.6 strains in indicated cell lines. TI: Minimal therapeutic index values were calculated with 50% in vitro inhibitory concentration values (IC50) and 10 μM where no sign of cytotoxicity was observed during tissue culture cytotoxicity measurements (TC50) of all tested compounds in both MT4 and CEMx174 cell lines.

A short description of data set [3]: In vivo pharmacokinetics in SD rats. The following applies: Sprague-Dawley, plasma, Rat. How it is done: Study design: […]). Group 1 was dosed with STP0404 at 1 mg/kg by single intravenous administration. […] The vehicle used for IV study was DMSO: PEG400: […] Blood samples were collected at 0.0833, 0.25, 0.5, 1, 2, 4, 8, 12 (only for PO groups) and 24 hrs post-dose for Groups 1 to 4. STP0404 concentrations in plasma samples were determined by LC-MS/MS. Preclinical Dog pharmacokinetics study (Study no. 400751-2015020201-DPK): A total of 6 male Beagle dogs were divided into two groups (3 animals/group). Following single STP0404 2 mg/kg oral and intravenous administration to Beagle Dogs, STP0404 concentration was determined in plasma, and pharmacokinetic parameters were calculated. […] The concentrations of STP0404 in plasma were determined by using a LC/MS/MS method.

The subject of data set [4] is MT4 cells. In words: Tissue culture cytotoxicity measurement in MT4 cells. The data set is classed as cell-based. An excerpt:
Fig 1 ALLINI structures and STP0404 activities. […] Pyridine-based KF116, D. Pyrrolopyridine-based STP0404. The conserved chemical moiety containing tert-butoxy and carboxylic acid groups are marked by “]”.

Data set [5] in a line: Safety pharmacology: effects on the respiratory system in rats. The data set is classed as in vivo. The conditions noted are these: single oral 100, 300 and 600 mg/kg. The method, then:
Effects on the Respiratory System in Rats (Study no. YL18404). Four groups of eight male rats were given a single oral administration of STP0404 at doses of 100, 300 and 600 mg/kg. STP0404 was administered as a suspension in 0.5% MC in a volume of 10 mL/kg. […] Measurements were conducted at pre-dosing and 0.5, 1, 3, 6 12 and 24 hrs post-dosing, and respiratory rate, tidal volume and minute volume were investigated (INA Research, Japan). Effects on the Central Nervous System in Rats (Study no. YL18405). Four groups of six male rats were given a single oral administration of STP0404 at doses of 0 (vehicle), 100, 300 and 600 mg/kg. The test article was administered as a suspension in 0.5% MC in a volume of 10 mL/kg. […] Blinded observations were conducted pre-dosing and 0.5, 1, 3, 6, 12 and 24 hrs post-dosing on rats body temperature, pupil size, landing foot-splay and grip strength in functional observational battery. Effects on the Cardiovascular System in Dogs (Study no. YL18406). STP0404 at dose levels of 30, 60 and 90 mg/kg were administered orally (by capsules) to four male Beagle dogs in a design with 7-day intervals between doses. Heart rate, blood pressure (systolic, diastolic and mean) and electrocardiographic (ECG) parameters (PR, QT and QTc intervals and QRS duration) were evaluated at pre-dosing and 0.5, 1, 2, 4, 8 and 24 hrs post-dosing. […]

Molecules are shown by their SMILES. Like-named read-outs stand apart in the source and are kept apart here.

In the case of `Cc1nc2c(c(C)c(C)n2Cc2cnn(C)c2)c(-c2ccc(Cl)cc2)c1[C@H](OC(C)(C)C)C(=O)O` [STP0404], the NOAEL (as a rule, the highest tested level that showed no adverse finding) at 4 weeks in data set [1] (female rats) was determined as 600 mg/kg/day; in data set [1] (male rats), 300 mg/kg/day. In addition, the TC50 in data set [2] and in data set [4] was > 10,000 nM each time. The exposure (AUC) (in general, concentration integrated over time) in data set [3] (iv, 5 mg/kg (i.v)) amounted to 42.7 µM·h; in data set [3] (po, 10 mg/kg (p.o)), 78 µM·h. Further, the half-life (commonly the time needed for the level to fall by half in the phase considered) was 3.83 h in data set [3] (iv, 5 mg/kg (i.v)) and 4.56 h in data set [3] (po, 10 mg/kg (p.o)). Further, the maximum concentration (Cmax) (commonly the peak of the concentration-time curve) in data set [3] (po, 10 mg/kg (p.o)) is 21.4 µM. Moreover, the bioavailability (in general, dose-corrected exposure relative to a reference, in per cent) in data set [3] (po, 10 mg/kg (p.o), read-out: Ft (oral bioavailability)) was 92.8%. Further, in data set [5], the “safety pharmacology concerns, respiratory system” value is “did not induce any safety pharmacology concerns”.
